Assay results published in ChEMBL document CHEMBL5532679, “Discovery and Characterization of RGH-122, a Potent, Selective, and Orally Bioavailable V1a Receptor Antagonist” (J Med Chem, 2024).

Key:
[1] = Efflux ratio of apparent permeability across basolateral to apical side over apical to basolateral side in vinblastine treated human Caco-2 cells at 1 to 10 uM incubated for 15 to 60 hrs by HPLC analysis
[2] = Apparent permeability of compound across apical to basal side in vinblastine treated human Caco-2 cells at 1 to 10 uM incubated for 15 to 60 mins by HPLC analysis
[3] = target: Voltage-gated inwardly rectifying potassium channel KCNH2 (Homo sapiens, UniProt Q12809)
Description: Inhibition of hERG expressed in CHO cells at -80 mV holding potential incubated for 7 to 10 mins by automated patch clamp method

[4] = in vitro; details: CD-1, mouse, liver microsomes
[5] = in vitro; details: Wistar, rat, microsomes
[6] = animal or person; details: Mus musculus, NMRI, po, read-out: INH
[7] = animal or person; details: Mus musculus, NMRI, po, read-out: INH; remark: listed apart in the source
[8] = target: T1, Vasopressin V1a receptor (Homo sapiens, UniProt P37288)
Description: Displacement of [3H]vasopressin from human V1A receptor assessed as inhibition constant by Cheng-Prusoff equation analysis

[9] = target: T1, Vasopressin V1a receptor; remark: listed apart in the source
Description: Antagonist activity at human V1A receptor expressed in human 1321N1 cells assessed as Ca2+ mobilization incubated for 15 mins by FLIPR calcium 5 assay

[10] = in vitro; details: NMRI, mouse, microsomes
[11] = human, microsomes, 1 µM
[12] = animal or person; details: Rattus norvegicus, po, read-out: INH
[13] = animal or person; details: Mus musculus, NMRI, read-out: INH
[14] = in vitro; details: human, microsomes
[15] = target: Cytochrome P450 3A4 (Homo sapiens, UniProt P08684); assay: Inhibition of CYP3A4 (unknown origin); type: ADME
[16] = target: T2, Cytochrome P450 2C8 (Homo sapiens, UniProt P10632); assay: Inhibition of CYP2C8 (unknown origin); type: ADME
T2 sequence (P10632 whole entry): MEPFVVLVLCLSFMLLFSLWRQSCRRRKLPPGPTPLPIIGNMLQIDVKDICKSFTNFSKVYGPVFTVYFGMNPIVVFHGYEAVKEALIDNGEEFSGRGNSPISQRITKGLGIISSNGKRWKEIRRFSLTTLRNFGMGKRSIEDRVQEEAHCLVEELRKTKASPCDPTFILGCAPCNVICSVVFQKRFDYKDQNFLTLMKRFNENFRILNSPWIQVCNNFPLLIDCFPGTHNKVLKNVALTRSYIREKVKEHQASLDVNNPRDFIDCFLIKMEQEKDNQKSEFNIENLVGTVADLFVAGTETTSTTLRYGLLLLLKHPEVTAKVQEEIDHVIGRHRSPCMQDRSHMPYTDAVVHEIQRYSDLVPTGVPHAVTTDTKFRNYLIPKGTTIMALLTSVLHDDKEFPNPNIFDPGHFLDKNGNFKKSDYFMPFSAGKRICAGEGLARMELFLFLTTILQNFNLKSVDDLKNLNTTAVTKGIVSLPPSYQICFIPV

[17] = target: T3, Cytochrome P450 1A2 (Homo sapiens, UniProt P05177); assay: Inhibition of CYP1A2 (unknown origin); type: ADME
T3 sequence (P05177 whole entry): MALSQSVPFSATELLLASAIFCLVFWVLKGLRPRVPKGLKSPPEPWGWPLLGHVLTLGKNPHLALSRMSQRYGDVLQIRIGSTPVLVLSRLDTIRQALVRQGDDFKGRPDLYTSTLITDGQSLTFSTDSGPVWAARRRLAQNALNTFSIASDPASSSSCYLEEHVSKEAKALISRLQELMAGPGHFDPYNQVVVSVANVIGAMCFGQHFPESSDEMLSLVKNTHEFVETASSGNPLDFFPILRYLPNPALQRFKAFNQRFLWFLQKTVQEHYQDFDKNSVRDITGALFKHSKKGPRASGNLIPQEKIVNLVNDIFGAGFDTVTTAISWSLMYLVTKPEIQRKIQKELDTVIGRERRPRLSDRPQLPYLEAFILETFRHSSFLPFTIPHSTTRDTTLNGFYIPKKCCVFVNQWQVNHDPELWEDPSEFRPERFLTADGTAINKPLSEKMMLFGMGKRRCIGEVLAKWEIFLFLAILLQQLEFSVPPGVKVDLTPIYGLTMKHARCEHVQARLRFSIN

[18] = target: Cytochrome P450 2C9 (Homo sapiens, UniProt P11712); assay: Inhibition of CYP2C9 (unknown origin); type: ADME
[19] = target: T4, Cytochrome P450 2B6 (Homo sapiens, UniProt P20813); assay: Inhibition of CYP2B6 (unknown origin); type: ADME
T4 sequence (P20813 whole entry): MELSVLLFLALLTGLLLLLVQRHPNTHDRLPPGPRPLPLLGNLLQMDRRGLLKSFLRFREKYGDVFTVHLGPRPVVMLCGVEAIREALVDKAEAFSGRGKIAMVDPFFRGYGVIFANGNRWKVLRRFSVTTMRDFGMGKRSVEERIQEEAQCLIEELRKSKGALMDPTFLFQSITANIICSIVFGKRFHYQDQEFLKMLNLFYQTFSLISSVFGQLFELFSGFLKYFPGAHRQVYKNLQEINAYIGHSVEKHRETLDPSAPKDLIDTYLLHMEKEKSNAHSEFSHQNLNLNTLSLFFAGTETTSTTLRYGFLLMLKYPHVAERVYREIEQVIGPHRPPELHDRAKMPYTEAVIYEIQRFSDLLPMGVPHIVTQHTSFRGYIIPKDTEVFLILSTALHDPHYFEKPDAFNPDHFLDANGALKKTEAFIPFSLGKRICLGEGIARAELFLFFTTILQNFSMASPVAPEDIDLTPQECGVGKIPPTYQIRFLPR

[20] = target: Cytochrome P450 2D6 (Homo sapiens, UniProt P10635); assay: Inhibition of CYP2D6 (unknown origin); type: ADME
[21] = in vivo; details: Wistar, rat, brain, po, 3 mg/kg
[22] = in vivo; details: Wistar, rat, brain, po, 3 mg/kg; remark: listed apart in the source
[23] = Half life in Wistar rat brain at 3 mg/kg, po by HPLC-MS/MS analysis
[24] = in vivo; details: Wistar, rat, po, 3 mg/kg
[25] = Half life in Wistar rat plasma at 3 mg/kg, iv by HPLC-MS/MS analysis
[26] = in vivo; details: Wistar, rat, plasma, iv, 3 mg/kg
[27] = in vivo; details: Wistar, rat, plasma, iv, 3 mg/kg; remark: listed apart in the source
[28] = in vivo; details: Wistar, rat, po, 3 mg/kg; remark: listed apart in the source
[29] = Half life in Wistar rat plasma at 3 mg/kg, po by HPLC-MS/MS analysis
[30] = in vivo; details: Wistar, rat, brain, po, 3 mg/kg; remark: listed apart in the source
[31] = in vivo; details: Wistar, rat, iv, 3 mg/kg
[32] = in vivo; details: Wistar, rat, plasma, po, 3 mg/kg

Voltage-gated inwardly rectifying potassium channel KCNH2, sequence (Q12809 whole entry): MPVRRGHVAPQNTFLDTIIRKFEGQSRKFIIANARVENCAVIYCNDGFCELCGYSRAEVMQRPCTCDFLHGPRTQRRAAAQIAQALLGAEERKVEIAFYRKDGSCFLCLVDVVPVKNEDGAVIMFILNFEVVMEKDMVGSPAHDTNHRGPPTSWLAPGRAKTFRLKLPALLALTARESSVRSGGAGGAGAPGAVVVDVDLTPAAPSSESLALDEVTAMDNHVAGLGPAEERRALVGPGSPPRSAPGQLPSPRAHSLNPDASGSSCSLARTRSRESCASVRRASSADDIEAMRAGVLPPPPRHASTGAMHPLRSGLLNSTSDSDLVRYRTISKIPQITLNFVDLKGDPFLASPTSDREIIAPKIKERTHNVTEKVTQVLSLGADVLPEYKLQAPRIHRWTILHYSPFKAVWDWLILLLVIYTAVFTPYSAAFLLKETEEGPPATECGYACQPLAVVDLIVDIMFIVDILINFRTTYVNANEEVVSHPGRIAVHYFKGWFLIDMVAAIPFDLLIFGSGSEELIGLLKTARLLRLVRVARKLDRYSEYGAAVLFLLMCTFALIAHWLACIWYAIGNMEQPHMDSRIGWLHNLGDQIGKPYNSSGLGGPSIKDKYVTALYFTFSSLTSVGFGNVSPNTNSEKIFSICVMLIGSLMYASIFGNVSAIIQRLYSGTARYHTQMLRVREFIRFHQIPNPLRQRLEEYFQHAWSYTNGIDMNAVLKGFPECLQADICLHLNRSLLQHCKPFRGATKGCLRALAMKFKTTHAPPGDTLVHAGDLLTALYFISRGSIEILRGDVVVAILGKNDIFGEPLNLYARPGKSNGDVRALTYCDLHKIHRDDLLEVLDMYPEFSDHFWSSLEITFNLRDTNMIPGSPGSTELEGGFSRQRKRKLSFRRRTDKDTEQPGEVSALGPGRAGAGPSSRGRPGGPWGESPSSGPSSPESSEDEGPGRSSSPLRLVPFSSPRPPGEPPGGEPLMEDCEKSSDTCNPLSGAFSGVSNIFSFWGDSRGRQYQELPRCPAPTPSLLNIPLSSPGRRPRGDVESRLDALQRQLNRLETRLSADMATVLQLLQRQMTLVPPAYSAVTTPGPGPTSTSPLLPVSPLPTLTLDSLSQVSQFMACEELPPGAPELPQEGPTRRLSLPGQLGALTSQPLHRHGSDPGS
T1 sequence (P37288 whole entry): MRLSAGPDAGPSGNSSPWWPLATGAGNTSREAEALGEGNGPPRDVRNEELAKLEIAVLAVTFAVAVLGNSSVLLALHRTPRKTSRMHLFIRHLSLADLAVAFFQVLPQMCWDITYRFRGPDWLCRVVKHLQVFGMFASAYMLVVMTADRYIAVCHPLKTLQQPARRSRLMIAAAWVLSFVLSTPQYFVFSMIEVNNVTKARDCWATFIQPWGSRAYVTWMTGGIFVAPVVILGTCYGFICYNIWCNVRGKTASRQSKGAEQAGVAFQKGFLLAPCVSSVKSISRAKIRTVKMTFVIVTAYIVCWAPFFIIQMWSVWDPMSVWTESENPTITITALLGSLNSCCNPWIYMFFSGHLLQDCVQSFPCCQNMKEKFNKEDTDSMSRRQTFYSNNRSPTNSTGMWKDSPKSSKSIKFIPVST
Cytochrome P450 2C9, sequence (P11712 whole entry): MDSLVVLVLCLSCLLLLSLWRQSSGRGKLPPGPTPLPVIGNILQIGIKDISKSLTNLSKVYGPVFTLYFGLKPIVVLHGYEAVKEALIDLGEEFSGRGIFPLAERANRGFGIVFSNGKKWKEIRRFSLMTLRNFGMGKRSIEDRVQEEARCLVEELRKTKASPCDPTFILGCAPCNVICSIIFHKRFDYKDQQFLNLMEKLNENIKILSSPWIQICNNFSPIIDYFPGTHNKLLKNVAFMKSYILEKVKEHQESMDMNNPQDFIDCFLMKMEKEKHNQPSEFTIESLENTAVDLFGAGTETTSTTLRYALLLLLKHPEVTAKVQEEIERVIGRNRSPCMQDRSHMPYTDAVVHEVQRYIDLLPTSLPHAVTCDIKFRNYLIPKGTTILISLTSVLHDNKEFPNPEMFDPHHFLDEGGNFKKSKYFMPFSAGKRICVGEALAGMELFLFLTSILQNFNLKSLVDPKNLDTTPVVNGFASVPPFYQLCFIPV
Cytochrome P450 3A4, sequence (P08684 whole entry): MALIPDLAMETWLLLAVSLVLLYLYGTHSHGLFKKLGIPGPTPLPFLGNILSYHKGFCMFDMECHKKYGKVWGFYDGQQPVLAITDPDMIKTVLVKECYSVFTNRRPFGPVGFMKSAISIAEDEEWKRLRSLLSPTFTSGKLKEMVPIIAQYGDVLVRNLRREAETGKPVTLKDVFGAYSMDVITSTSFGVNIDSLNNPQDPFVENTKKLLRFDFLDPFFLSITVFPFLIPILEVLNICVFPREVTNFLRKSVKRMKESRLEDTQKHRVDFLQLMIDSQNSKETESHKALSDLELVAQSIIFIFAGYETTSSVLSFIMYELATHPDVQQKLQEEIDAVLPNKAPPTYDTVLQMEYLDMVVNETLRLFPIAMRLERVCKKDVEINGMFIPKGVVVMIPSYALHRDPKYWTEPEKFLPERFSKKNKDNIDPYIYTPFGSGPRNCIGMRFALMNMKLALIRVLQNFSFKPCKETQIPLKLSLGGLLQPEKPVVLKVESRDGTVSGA
Cytochrome P450 2D6, sequence (P10635 whole entry): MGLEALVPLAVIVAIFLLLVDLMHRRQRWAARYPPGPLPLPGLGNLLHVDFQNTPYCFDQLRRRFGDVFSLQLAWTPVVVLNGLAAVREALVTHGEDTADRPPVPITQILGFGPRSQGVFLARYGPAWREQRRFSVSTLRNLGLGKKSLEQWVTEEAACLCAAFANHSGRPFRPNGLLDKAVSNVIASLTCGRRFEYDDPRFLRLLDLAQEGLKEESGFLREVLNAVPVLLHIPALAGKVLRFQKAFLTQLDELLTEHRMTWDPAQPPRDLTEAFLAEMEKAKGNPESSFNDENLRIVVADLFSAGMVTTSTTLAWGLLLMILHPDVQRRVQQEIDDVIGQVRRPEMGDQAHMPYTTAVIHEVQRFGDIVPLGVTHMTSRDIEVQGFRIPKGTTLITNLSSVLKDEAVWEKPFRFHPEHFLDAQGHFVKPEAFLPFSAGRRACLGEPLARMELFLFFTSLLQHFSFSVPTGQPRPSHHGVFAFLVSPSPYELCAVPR

Compound | efflux ratio at 10 µM [1] | Papp A→B at 10 µM [2] [×10⁻⁶ cm/s] | microsomal CLint at 1 µM [4] [µL/min/mg] | microsomal CLint at 1 µM [5] [µL/min/mg] | Ki [8] [nM] | IC50 [9] [nM] | microsomal CLint at 1 µM [10] [µL/min/mg] | CLH [11] | IC50 [3] [µM] | inhibition in vivo at 10 mg/kg [6] [%] | inhibition in vivo at 3 mg/kg [7] [%] | further results
Clc1ccc2c(c1)CC1(Cc3nnc([C@H]4CC[C@H](N5CCOCC5)CC4)n3-2)OCCO1 | 15 | 4.5 | 7 | 6 |  |  |  |  | 3.5 |  |  | 
CN1Cc2cc(Cl)ccc2-n2c(nnc2[C@H]2CC[C@H](Oc3ccccn3)CC2)C1 [BALOVAPTAN] |  | 51 |  | 17 |  |  | 22 | 51 µL/min/mg | 21 | 69 | 7 | 
CO[C@@H]1Cc2cc(Cl)ccc2-n2c(nnc2[C@H]2CC[C@H](Oc3ccccn3)CC2)C1 | 0.9 | 38 | 25 | 41 | 0.2 | 0.6 |  |  | 13.8 | 67 | 73 | inhibition in vivo at 10 mg/kg [12]: > 60%
Clc1ccc2c(c1)CC1(Cc3nnc([C@H]4CC[C@H](Oc5ccccn5)CC4)n3-2)OCCCCO1 |  |  |  | 229 |  | 1.1 | 211 | 170 µL/min/kg |  |  |  | 
Clc1ccc2c(c1)CC1(CCCOC1)Cc1nnc([C@H]3CC[C@H](Oc4ccccn4)CC3)n1-2 (some centres not stated) |  |  | 263 | 267 | 0.3 | 23 |  | 256 µL/min/kg |  |  |  | 
Clc1cnc2n1CCCc1nnc([C@H]3CC[C@H](Oc4ccccn4)CC3)n1-2 | 0.8 |  |  | 12 |  | 178 | 15 | 41 µL/min/mg |  |  |  | inhibition in vivo at 10 mg/kg [13]: 32%
Clc1ccc2c(c1)CC1(Cc3nnc([C@H]4CC[C@H](Oc5ccccn5)CC4)n3-2)OCCO1 |  |  |  |  |  |  |  |  |  |  |  | IC50 [15]: > 10 µM; IC50 [16]: > 10 µM; IC50 [17]: > 10 µM; IC50 [18]: > 10 µM; IC50 [19]: > 10 µM; IC50 [20]: > 10 µM
CC(=O)N[C@@H]1Cc2cc(Cl)ccc2-n2c(nnc2[C@H]2CC[C@H](Oc3ccccn3)CC2)C1 | 14 | 2.7 | 4 | 1 |  |  |  |  |  |  |  | microsomal CLint at 1 µM [14]: 0.2 µL/min/mg

The next lines start with results.

efflux ratio at 10 µM [1] | Papp A→B at 10 µM [2] [×10⁻⁶ cm/s] | microsomal CLint at 1 µM [4] [µL/min/mg] | microsomal CLint at 1 µM [5] [µL/min/mg] | Ki [8] [nM] | IC50 [9] [nM] | microsomal CLint at 1 µM [10] [µL/min/mg] | CLH [11] | Compound | IC50 [3] [µM] | inhibition in vivo at 10 mg/kg [6] [%] | inhibition in vivo at 3 mg/kg [7] [%] | further results
2.7 | 40 | 66 | 33 | 2 | 0.6 |  |  | CO[C@H]1Cc2cc(Cl)ccc2-n2c(nnc2[C@H]2CC[C@H](Oc3ccccn3)CC2)C1 | 10.2 | 71 | 69 | 
 |  |  | 43 |  |  | 36 | 124 µL/min/kg | O=C1Cc2cc(Cl)ccc2-n2c(nnc2[C@H]2CC[C@H](Oc3ccccn3)CC2)C1 | > 30 | 70 | 58 | 
1 | 39 |  | 16 |  |  | 34 | 0.2 µL/min/kg | FC(F)(F)[C@H]1CC[C@H](c2nnc3n2-c2ccc(Cl)cc2CC2(C3)OCCO2)CC1 | > 30 | 41 | 0 | 
1 | 30 |  |  | 0.6 | 0.8 | 126 | 46 µL/min/kg | COCC1Cc2cc(Cl)ccc2-n2c(nnc2[C@H]2CC[C@H](Oc3ccccn3)CC2)C1 (some centres not stated) |  |  |  | 
37 | 1.8 | 16 | 3 |  |  |  |  | CC(C)(O)C(=O)N[C@@H]1Cc2cc(Cl)ccc2-n2c(nnc2[C@H]2CC[C@H](Oc3ccccn3)CC2)C1 |  |  |  | microsomal CLint at 1 µM [14]: 1 µL/min/mg
2.9 | 11 | 18 | 4 |  |  |  |  | O=C(N[C@@H]1Cc2cc(Cl)ccc2-n2c(nnc2[C@H]2CC[C@H](Oc3ccccn3)CC2)C1)C(F)(F)F |  |  |  | microsomal CLint at 1 µM [14]: 2 µL/min/mg
 |  | 80 | 42 | 0.3 | 1.3 |  | 26 µL/min/kg | Clc1ccc2c(c1)CC1(CCOC1)Cc1nnc([C@H]3CC[C@H](Oc4ccccn4)CC3)n1-2 (some centres not stated) |  |  |  | 
5.9 | 20 |  | 17 |  |  | 6 | 0.4 µL/min/kg | OC1Cc2cc(Cl)ccc2-n2c(nnc2[C@H]2CC[C@H](Oc3ccccn3)CC2)C1 (mixture of isomers) | > 30 | 91 | 87 | Tmax [21]: 30 min; Kp [22]: 0.54; half-life [23]: 85.8 min; AUC(0-t) [24]: 0.481 µM·h; half-life [25]: 60 min; Cmax [26]: 469 nM; Tmax [27]: 18 min; AUC(0-t) [28]: 0.897 µM·h; half-life [29]: 90 min; Cmax [30]: 190 nM; AUC(0-t) [31]: 0.876 µM·h; Cmax [32]: 403 nM
